These results are taken from US20230192700A1, “PYRAZOLOPYRAZINES ACTING ON CANCERS VIA INHIBITION OF CDK12” (Bayer Aktiengesellschaft, priority 2020, published 2023).

Assay [1] has as its system CAL-120 human breast adenocarcinoma cells. The assay can be described thus: Proliferation assay CAL-120 (crystal violet). It counts as cell-based. Particulars: Homo sapiens, CAL-120, 96 h, CAL-120 cells, 4 days, median, read-out: Prolif-CAL-120— IC50 - [mol/l] (median). The protocol:
4. Proliferation assay: MDA-MB-231, CAL-120
Human tumour cells were originally obtained from the American Type Culture Collection (ATCC), or from the Deutsche Sammlung von Mikroorganismen and Zellkulturen (DSMZ, German Collection of Microorganisms and Cell Cultures). Cultivated tumour cells (CAL-120, human breast adenocarcinoma cells, DSMZ ACC-459; MDA-M B-231, human breast cancer cells, ATCC HTB-26) were plated at a density of 4,000 cells/well in a 96-well multititer plate in 200 microL of their respective growth medium supplemented 10% fetal calf serum. After 24 hours, the cells of one plate (zero-point plate) were stained with crystal violet (see below), while the medium of the other plates was supplemented with the test substances in various concentrations (0 micromol/L, as well as in the range of 0.01-10 micromol/L; the final concentration of the solvent dimethyl sulfoxide was adjusted to 0.1%) using a Tecan HP D300 Digital Dispenser. The cells were incubated for 4 days in the presence of test substances. Cell proliferation was determined by staining the cells with crystal violet: the cells were fixed by adding 20 microL/measuring point of an 11% glutaric aldehyde solution for 15 minutes at room temperature. After three washing cycles of the fixed cells with water, the plates were dried at room temperature. The cells were stained by adding 100 microL/measuring point of a 0.1% crystal violet solution (pH 3.0). After three washing cycles of the stained cells with water, the plates were dried at room temperature. The dye was dissolved by adding 100 microL/measuring point of a 10% acetic acid solution. The extinction was determined by photometry at a wavelength of 595 nm. The change of cell number, in percent, was calculated by normalization of the measured values to the extinction values of the zero-point plate(=0%) and the extinction of the untreated (0 μM) cells(=100%). The IC50 values (inhibitory concentration at 50% of maximal effect) were determined by means of a 4 parameter fit.

The target of assay [2] is T1, CDK9/CyclinT1 (Homo sapiens, UniProt P50750).
T1 construct: Recombinant full-length His-tagged human CDK9 and CycT1; His-tag; purchased Life Technologies PV4131; host or cells: insect cells
T1 sequence (P50750 whole entry): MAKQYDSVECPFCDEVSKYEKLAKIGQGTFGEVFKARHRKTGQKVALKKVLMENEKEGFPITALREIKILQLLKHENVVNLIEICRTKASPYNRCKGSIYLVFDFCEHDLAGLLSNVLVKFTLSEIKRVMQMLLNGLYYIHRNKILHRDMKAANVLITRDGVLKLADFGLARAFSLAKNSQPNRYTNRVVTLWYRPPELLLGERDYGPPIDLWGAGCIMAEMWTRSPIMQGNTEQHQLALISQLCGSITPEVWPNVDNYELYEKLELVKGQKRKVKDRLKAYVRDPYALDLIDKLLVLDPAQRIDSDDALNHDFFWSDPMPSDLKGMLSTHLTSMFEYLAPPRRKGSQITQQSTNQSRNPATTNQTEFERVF
T1 sequence (O60563 whole entry partner): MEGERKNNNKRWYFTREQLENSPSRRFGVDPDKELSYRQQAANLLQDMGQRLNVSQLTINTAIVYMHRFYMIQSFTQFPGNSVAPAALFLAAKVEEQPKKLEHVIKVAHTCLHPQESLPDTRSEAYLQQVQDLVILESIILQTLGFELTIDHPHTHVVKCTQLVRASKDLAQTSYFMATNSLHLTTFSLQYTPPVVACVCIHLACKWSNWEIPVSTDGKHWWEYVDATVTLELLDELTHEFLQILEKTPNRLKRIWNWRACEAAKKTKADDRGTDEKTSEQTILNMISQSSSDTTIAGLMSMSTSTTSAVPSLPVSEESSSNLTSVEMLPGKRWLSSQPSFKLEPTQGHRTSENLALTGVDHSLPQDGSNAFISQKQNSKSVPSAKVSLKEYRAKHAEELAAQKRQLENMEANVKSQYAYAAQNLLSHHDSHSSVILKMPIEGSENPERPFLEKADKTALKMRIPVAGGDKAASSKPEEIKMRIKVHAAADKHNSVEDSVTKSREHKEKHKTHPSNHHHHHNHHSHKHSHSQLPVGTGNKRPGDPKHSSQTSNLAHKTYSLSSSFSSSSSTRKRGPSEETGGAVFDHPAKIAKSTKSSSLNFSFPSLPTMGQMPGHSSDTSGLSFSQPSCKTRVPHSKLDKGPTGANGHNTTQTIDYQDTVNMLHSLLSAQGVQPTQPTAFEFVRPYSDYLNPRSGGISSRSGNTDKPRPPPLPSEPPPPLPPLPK
In words: CDK9/CycT1 high ATP kinase assay (TR-FRET). It counts as biochemical. As to conditions: 2 mM ATP (high ATP); median; read-out: CDK9/CyclinT1, 2 mM ATP (high ATP) IC50 - [mol/l] (median). The protocol:
2.5 CDK9/CycT1 High ATP Kinase Assay
CDK9/CycT1 -inhibitory activity of compounds of the present invention at a high ATP concentration after preincubation of enzyme and test compounds was quantified employing the CDK9/CycT1 TR-FRET assay as described in the following paragraphs.
Recombinant full-length His-tagged human CDK9 and CycT1, expressed in insect cells and purified by Ni-NTA affinity chromatography, were purchased from Life Technologies (Cat. No PV4131). As substrate for the kinase reaction biotinylated peptide biotin-Ttds-YISPLKSPYKISEG (C-terminus in amide form) was used which can be purchased e.g. form the company JERINI peptide technologies (Berlin, Germany).
For the assay 50 nanoL of a 100 fold concentrated solution of the test compound in DMSO was pipetted into either a black low volume 384 well microtiter plate or a black 1536 well microtiter plate (both Greiner Bio-One, Frickenhausen, Germany), 2 microL of a solution of CDK9/CycT1 in aqueous assay buffer [50 millimol/L Tris/HCl pH 8.0, 10 millimol/L MgCl2, 1.0 millimol/L dithiothreitol, 0.1 millimol/L sodium ortho-vanadate, 0.01% (v/v) Nonidet-P40 (Sigma)] were added and the mixture was incubated for 15 min at 22° C. to allow pre-binding of the test compounds to the enzyme before the start of the kinase reaction. Then the kinase reaction was started by the addition of 3 microL of a solution of adenosine-tri-phosphate (ATP, 3.3 millimol/L=>final conc. in the 5 microL assay volume is 2 millimol/L) and substrate (1.25 micromol/L =>final conc. in the 5 microL assay volume is 0.75 micromol/L) in assay buffer and the resulting mixture was incubated for a reaction time of 25 min at 22° C. The concentration of CDK9/CycT1 was adjusted depending of the activity of the enzyme lot and was chosen appropriate to have the assay in the linear range, typical concentrations were in the range of 0.5 microg/mL. The reaction was stopped by the addition of 3 microL of a solution of TR-FRET detection reagents (0.33 micromol/L streptavidine-XL665 [Cisbio Bioassays, Codolet, France] and 1.67 nanomol/L anti-RB(pSer807/pSer811)-antibody from BD Pharmingen [#558389] and 2 nanomol/L LANCE EU-W1024 labeled anti-mouse IgG antibody [Perkin-Elmer, product no. AD0077]) in an aqueous EDTA-solution (167 millimol/L EDTA, 0.2% (w/v) bovine serum albumin in 100 millimol/L HEPES pH 7.5).
The resulting mixture was incubated 1 h at 22° C. to allow the formation of complex between the phosphorylated biotinylated peptide and the detection reagents. Subsequently the amount of phosphorylated substrate was evaluated by measurement of the resonance energy transfer from the Eu-chelate to the streptavidine-XL. Therefore, the fluorescence emissions at 620 nm and 665 nm after excitation at 350 nm was measured in a TR-FRET reader, e.g. a Pherastar (BMG Labtechnologies, Offenburg, Germany) or a Viewlux (Perkin-Elmer). The ratio of the emissions at 665 nm and at […] was taken as the measure for the amount of phosphorylated substrate. The data were normalised (enzyme reaction without inhibitor=0% inhibition, all other assay components but no enzyme=100% inhibition).
On the technique in general: TR-FRET usually uses a lanthanide donor and a delayed reading to cut background.

Each structure is given as a SMILES string.

With `CN1CCC(n2nc(NCc3nc4cc(SC(F)(F)F)ccc4[nH]3)c3ncc(C4CC4)nc32)CC1` [Example 27, 6-cyclopropyl-1-(1-methylpiperidin-4-yl)-N-({5-[(trifluoromethyl)sulfanyl]-1H-benzimidazol-2-yl}methyl)-1H-pyrazolo[3,4-b]pyrazin-3-amine], the values for the IC50 in assay [1] and in assay [2] were 266 nM and greater than 20000 nM, respectively.
In the same order, the values of `FC1(F)CCC(n2nc(NCc3nc4ccccc4[nH]3)c3ncc(C4CC4)nc32)CC1` [Example 36, N-[(1H-benzimidazol-2-yl)methyl]-6-cyclopropyl-1-(4,4-difluorocyclohexyl)-1H-pyrazolo[3,4-b]pyrazin-3-amine] are 48.8 nM and greater than 20000 nM.
For the molecule `c1ccc2[nH]c(CNc3nn(C4CCC4)c4nc(C5CC5)cnc34)nc2c1` [Example 49, N-[(1H-benzimidazol-2-yl)methyl]-1-cyclobutyl-6-cyclopropyl-1H-pyrazolo[3,4-b]pyrazin-3-amine], the IC50 in assay [1] is 122 nM; in assay [2], greater than 20000 nM.
Consider `OCCCn1nc(NCc2nc3ccccc3[nH]2)c2ncc(C3CC3)nc21` [Example 60, 3-(3-{[(1H-benzimidazol-2-yl)methyl]amino}-6-cyclopropyl-1H-pyrazolo[3,4-b]pyrazin-1-yl)propan-1-ol], for which the IC50 in assay [1] was 128 nM; in assay [2], greater than 20000 nM.
On to `COCCCn1nc(NCc2nc3ccccc3[nH]2)c2ncc(C3CC3)nc21` [Example 61, N-[(1H-benzimidazol-2-yl)methyl]-6-cyclopropyl-1-(3-methoxypropyl)-1H-pyrazolo[3,4-b]pyrazin-3-amine], for which the IC50 in assay [1] is 60.6 nM; in assay [2], greater than 20000 nM.
The matching figures for `COCCn1nc(NCc2nc3ccccc3[nH]2)c2ncc(C3CC3)nc21` [Example 65, N-[(1H-benzimidazol-2-yl)methyl]-6-cyclopropyl-1-(2-methoxyethyl)-1H-pyrazolo[3,4-b]pyrazin-3-amine]: 147 nM and greater than 20000 nM.
The matching figures for `OCCn1nc(NCc2nc3ccccc3[nH]2)c2ncc(C3CC3)nc21` [Example 66, 2-(3-{[(1H-benzimidazol-2-yl)methyl]amino}-6-cyclopropyl-1H-pyrazolo[3,4-b]pyrazin-1-yl)ethan-1-ol]: 160 nM and greater than 20000 nM.
For the molecule `CN(C)CCn1nc(NCc2nc3ccccc3[nH]2)c2ncc(C3CC3)nc21` [Example 68, N-[(1H-benzimidazol-2-yl)methyl]-6-cyclopropyl-1-[2-(dimethylamino)ethyl]-1H-pyrazolo[3,4-b]pyrazin-3-amine], the IC50 in assay [1] was 266 nM; in assay [2] it was greater than 20000 nM.
As to `CC(C)(O)Cn1nc(NCc2nc3ccccc3[nH]2)c2ncc(C3CC3)nc21` [Example 69, 1-(3-{[(1H-benzimidazol-2-yl)methyl]amino}-6-cyclopropyl-1H-pyrazolo[3,4-b]pyrazin-1-yl)-2-methylpropan-2-ol], the IC50 in assay [1] was 199 nM; in assay [2] it was greater than 20000 nM.
In the case of `O[C@H]1C[C@H](Cn2nc(NCc3nc4ccccc4[nH]3)c3ncc(C4CC4)nc32)C1` [Example 70, trans-3-[(3-{[(1H-benzimidazol-2-yl)methyl]amino}-6-cyclopropyl-1H-pyrazolo[3,4-b]pyrazin-1-yl)methyl]cyclobutan-1-ol], the IC50 in assay [1] was 71.8 nM; in assay [2], greater than 20000 nM.
Take `OC1(Cn2nc(NCc3nc4ccccc4[nH]3)c3ncc(C4CC4)nc32)CCC1` [Example 72, 1-[(3-{[(1H-benzimidazol-2-yl)methyl]amino}-6-cyclopropyl-1H-pyrazolo[3,4-b]pyrazin-1-yl)methyl]cyclobutan-1-ol]: the IC50 in assay [1] was 60.6 nM; in assay [2] it was greater than 20000 nM.
Take `OC1(Cn2nc(NCc3nc4ccccc4[nH]3)c3ncc(C4CC4)nc32)CCCC1` [Example 73, 1-[(3-{[(1H-benzimidazol-2-yl)methyl]amino}-6-cyclopropyl-1H-pyrazolo[3,4-b]pyrazin-1-yl)methyl]cyclopentan-1-ol]: the IC50 in assay [1] is 110 nM; in assay [2] it was greater than 20000 nM.
